PubChem BioAssay AID248 (DTP/NCI, 2004)
Inconclusive results and toxic doses are left out.

Tested on: L1210 leukemia ip in BDF1 mice, survival T/C
Assay: NCI In Vivo Anticancer Drug Screen. Data for tumor model L1210 Leukemia (intraperitoneal) in B6D2F1 (BDF1) mice
Conditions: higher = longer survival
Outline: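 In this screen, tumor-bearing mice given compound are compared to those given vehicle, and their survival values are reported as a treated-to-control quotient.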

[1] = endpoint: mean survival time, dose: 50.0 mg/kg/injection, schedule: Q01DX001 (ip), vehicle: saline
[2] = endpoint: mean survival time, dose: 100.0 mg/kg/injection, schedule: Q01DX001 (ip), vehicle: saline
[3] = endpoint: mean survival time, dose: 200.0 mg/kg/injection, schedule: Q01DX001 (ip), vehicle: saline
[4] = endpoint: mean survival time, dose: 400.0 mg/kg/injection, schedule: Q01DX001 (ip), vehicle: saline
[5] = endpoint: mean survival time, dose: 100.0 mg/kg/injection, schedule: Q04DX002 (ip), vehicle: Klucel (hydroxypropylcellulose) (HPC)
[6] = endpoint: mean survival time, dose: 25.0 mg/kg/injection, schedule: Q04DX003 (ip), vehicle: saline with Tween-80
[7] = endpoint: mean survival time, dose: 50.0 mg/kg/injection, schedule: Q04DX003 (ip), vehicle: saline with Tween-80
[8] = endpoint: mean survival time, dose: 100.0 mg/kg/injection, schedule: Q04DX003 (ip), vehicle: saline with Tween-80
[9] = endpoint: mean survival time, dose: 50.0 mg/kg/injection, schedule: Q01DX009 (ip), vehicle: saline with Tween-80
[10] = endpoint: mean survival time, dose: 100.0 mg/kg/injection, schedule: Q01DX009 (ip), vehicle: saline with Tween-80
[11] = endpoint: mean survival time, dose: 200.0 mg/kg/injection, schedule: Q01DX009 (ip), vehicle: saline with Tween-80
[12] = endpoint: mean survival time, dose: 100.0 mg/kg/injection, schedule: Q04DX003 (ip), vehicle: Klucel (hydroxypropylcellulose) (HPC)
[13] = endpoint: mean survival time, dose: 200.0 mg/kg/injection, schedule: Q04DX003 (ip), vehicle: Klucel (hydroxypropylcellulose) (HPC)
[14] = endpoint: mean survival time, dose: 400.0 mg/kg/injection, schedule: Q04DX003 (ip), vehicle: Klucel (hydroxypropylcellulose) (HPC)
[15] = endpoint: mean survival time, dose: 25.0 mg/kg/injection, schedule: Q04DX002 (ip), vehicle: saline
[16] = endpoint: mean survival time, dose: 50.0 mg/kg/injection, schedule: Q04DX002 (ip), vehicle: saline

## CC(=O)OC1CCC2(C)C3=C(CCC2C1(C)C)C1(C)CCC(c2ccc(C(C)C)oc2=O)C1(C)CC3 (stereo not drawn)
endpoint: mean survival time, dose: 100.0 mg/kg/injection, schedule: Q01DX001 (sc), vehicle: steriod suspending solution
  T/C: 103 % of control
endpoint: mean survival time, dose: 200.0 mg/kg/injection, schedule: Q01DX001 (sc), vehicle: steriod suspending solution
  T/C: 106 % of control
endpoint: mean survival time, dose: 400.0 mg/kg/injection, schedule: Q01DX001 (sc), vehicle: steriod suspending solution
  T/C: 103 % of control

## O=C(Cc1ccccc1)c1ccc(O)cc1O
[1]
  T/C: 104 % of control
[2]
  T/C: 104 % of control
endpoint: mean survival time, dose: 100.0 mg/kg/injection, schedule: Q04DX003 (ip), vehicle: gum acacia
  T/C: 113 % of control
[3]
  T/C: 102 % of control
endpoint: mean survival time, dose: 200.0 mg/kg/injection, schedule: Q04DX003 (ip), vehicle: gum acacia
  T/C: 98 % of control
[4]
  T/C: 102 % of control
endpoint: mean survival time, dose: 400.0 mg/kg/injection, schedule: Q04DX003 (ip), vehicle: gum acacia
  T/C: 101 % of control

## COc1cc(Cn2cccc2/C=N/NC(N)=S)c([N+](=O)[O-])cc1OC
endpoint: mean survival time, dose: 25.0 mg/kg/injection, schedule: Q04DX002 (ip), vehicle: Klucel (hydroxypropylcellulose) (HPC)
  T/C: 100 % of control
endpoint: mean survival time, dose: 50.0 mg/kg/injection, schedule: Q04DX002 (ip), vehicle: Klucel (hydroxypropylcellulose) (HPC)
  T/C: 104 % of control
[5]
  T/C: 93 % of control

## CC(C)(C)CCSC(=N)N
[6]
  T/C: 98 % of control
[7]
  T/C: 102 % of control
[8]
  T/C: 96 % of control

## Cc1nc(NN)ccc1[N+](=O)[O-]
[5]
  T/C: 96 % of control
endpoint: mean survival time, dose: 200.0 mg/kg/injection, schedule: Q04DX002 (ip), vehicle: Klucel (hydroxypropylcellulose) (HPC)
  T/C: 90 % of control
endpoint: mean survival time, dose: 400.0 mg/kg/injection, schedule: Q04DX002 (ip), vehicle: Klucel (hydroxypropylcellulose) (HPC)
  T/C: 96 % of control

## O=c1[nH]ccc2c(O)cccc12
[9]
  T/C: 95 % of control
[7]
  T/C: 101 % of control
[10]
  T/C: 97 % of control
[8]
  T/C: 101 % of control
[11]
  T/C: 90 % of control
endpoint: mean survival time, dose: 200.0 mg/kg/injection, schedule: Q04DX003 (ip), vehicle: saline with Tween-80
  T/C: 94 % of control

## Cc1c(N)nc(N)nc1C(=O)O
endpoint: mean survival time, dose: 25.0 mg/kg/injection, schedule: Q01DX001 (ip), vehicle: Klucel (hydroxypropylcellulose) (HPC)
  T/C: 108 % of control
endpoint: mean survival time, dose: 50.0 mg/kg/injection, schedule: Q01DX001 (ip), vehicle: Klucel (hydroxypropylcellulose) (HPC)
  T/C: 93 % of control
endpoint: mean survival time, dose: 100.0 mg/kg/injection, schedule: Q01DX001 (ip), vehicle: Klucel (hydroxypropylcellulose) (HPC)
  T/C: 105 % of control

## CC(=O)c1ccc(C(O)C(CO)NC(=O)C(Cl)Cl)cc1 (stereo not drawn)
[12]
  T/C: 100 % of control
[13]
  T/C: 103 % of control
[14]
  T/C: 103 % of control

## Cc1cc(Cl)ccc1OCC(=O)Nc1cccc(C(F)(F)F)c1
endpoint: mean survival time, dose: 100.0 mg/kg/injection, schedule: Q04DX002 (ip), vehicle: saline
  T/C: 103 % of control
endpoint: mean survival time, dose: 200.0 mg/kg/injection, schedule: Q04DX002 (ip), vehicle: saline
  T/C: 100 % of control
endpoint: mean survival time, dose: 400.0 mg/kg/injection, schedule: Q04DX002 (ip), vehicle: saline
  T/C: 92 % of control

## CCC(C)(C1CCC(O)CC1)C1CCC(O)CC1 (stereo not drawn)
[2]
  T/C: 94 % of control
[3]
  T/C: 96 % of control
[4]
  T/C: 98 % of control

## CCCN(CCC)C(=S)CC
endpoint: mean survival time, dose: 100.0 mg/kg/injection, schedule: Q04DX002 (ip), vehicle: saline with Tween-80
  T/C: 94 % of control
endpoint: mean survival time, dose: 200.0 mg/kg/injection, schedule: Q04DX002 (ip), vehicle: saline with Tween-80
  T/C: 98 % of control

## CN=C(N)Nc1ccc(NC(=O)Nc2ccc(NC(=O)Nc3ccc(NC(N)=NC)cc3)cc2)cc1
endpoint: mean survival time, dose: 3.75 mg/kg/injection, schedule: Q01DX Z (ip), vehicle: carboxymethylcellulose (CMC)
  T/C: 100 % of control
endpoint: mean survival time, dose: 7.5 mg/kg/injection, schedule: Q01DX Z (ip), vehicle: carboxymethylcellulose (CMC)
  T/C: 110 % of control
endpoint: mean survival time, dose: 30.0 mg/kg/injection, schedule: Q01DX Z (ip), vehicle: carboxymethylcellulose (CMC)
  T/C: 170 % of control
endpoint: mean survival time, dose: 31.0 mg/kg/injection, schedule: Q01DX Z (oral), vehicle: carboxymethylcellulose (CMC)
  T/C: 100 % of control
endpoint: mean survival time, dose: 62.0 mg/kg/injection, schedule: Q01DX Z (oral), vehicle: carboxymethylcellulose (CMC)
  T/C: 110 % of control
endpoint: mean survival time, dose: 125.0 mg/kg/injection, schedule: Q01DX Z (oral), vehicle: carboxymethylcellulose (CMC)
  T/C: 95 % of control
endpoint: mean survival time, dose: 250.0 mg/kg/injection, schedule: Q01DX Z (oral), vehicle: carboxymethylcellulose (CMC)
  T/C: 101 % of control

## COc1cc(N)c2ncccc2c1[N+](=O)[O-]
[1]
  T/C: 112 % of control
[2]
  T/C: 106 % of control
[3]
  T/C: 106 % of control
[4]
  T/C: 104 % of control

## c1ccc2nc3c(cc2c1)[nH]c1ccccc13
endpoint: mean survival time, dose: 100.0 mg/kg/injection, schedule: Q04DX002 (ip), vehicle: gum acacia
  T/C: 92 % of control
endpoint: mean survival time, dose: 200.0 mg/kg/injection, schedule: Q04DX002 (ip), vehicle: gum acacia
  T/C: 106 % of control
endpoint: mean survival time, dose: 400.0 mg/kg/injection, schedule: Q04DX002 (ip), vehicle: gum acacia
  T/C: 103 % of control

## NC(Cc1ccccc1)C(=O)CCl (stereo not drawn)
[15]
  T/C: 105 % of control
[16]
  T/C: 108 % of control

## C[Si](C)(O)CCl
endpoint: mean survival time, dose: 75.0 mg/kg/injection, schedule: Q01DX001 (ip), vehicle: saline
  T/C: 102 % of control

## CC1CC2NC(C)CC3NC(C)CC(N1)N32 (stereo not drawn)
[12]
  T/C: 106 % of control
[13]
  T/C: 97 % of control
[14]
  T/C: 111 % of control

## CCC1(C)OC(=O)NC1=O (stereo not drawn)
[9]
  T/C: 96 % of control
[10]
  T/C: 101 % of control
[11]
  T/C: 86 % of control

## O=Cc1ccc(O)c(Br)c1
[10]
  T/C: 100 % of control
[11]
  T/C: 109 % of control
endpoint: mean survival time, dose: 400.0 mg/kg/injection, schedule: Q01DX009 (ip), vehicle: saline with Tween-80
  T/C: 88 % of control

## c1ccc(C[n+]2cccc3ccccc32)cc1
endpoint: mean survival time, dose: 6.25 mg/kg/injection, schedule: Q01DX009 (ip), vehicle: saline
  T/C: 100 % of control
endpoint: mean survival time, dose: 6.25 mg/kg/injection, schedule: Q04DX003 (ip), vehicle: saline
  T/C: 97 % of control
endpoint: mean survival time, dose: 12.5 mg/kg/injection, schedule: Q01DX009 (ip), vehicle: saline
  T/C: 101 % of control
endpoint: mean survival time, dose: 12.5 mg/kg/injection, schedule: Q04DX002 (ip), vehicle: saline
  T/C: 98 % of control
endpoint: mean survival time, dose: 12.5 mg/kg/injection, schedule: Q04DX003 (ip), vehicle: saline
  T/C: 106 % of control
endpoint: mean survival time, dose: 25.0 mg/kg/injection, schedule: Q01DX009 (ip), vehicle: saline
  T/C: 100 % of control
[15]
  T/C: 102 % of control
endpoint: mean survival time, dose: 25.0 mg/kg/injection, schedule: Q04DX003 (ip), vehicle: saline
  T/C: 101 % of control
[16]
  T/C: 105 % of control

## Brc1ccc(-c2nc3ccccc3c(Br)c2Br)cc1
[2]
  T/C: 90 % of control
[3]
  T/C: 94 % of control
[4]
  T/C: 90 % of control

## Nc1c(Cl)cc2c(c1Cl)Cc1c-2cc(Br)c(N)c1Br
endpoint: median survival time, dose: 5.0 mg/kg/injection, schedule: Q04DX003 (ip), vehicle: saline
  T/C: 121 % of control
endpoint: median survival time, dose: 10.0 mg/kg/injection, schedule: Q04DX003 (ip), vehicle: saline
  T/C: 153 % of control
endpoint: median survival time, dose: 20.0 mg/kg/injection, schedule: Q04DX003 (ip), vehicle: saline
  T/C: 180 % of control
endpoint: median survival time, dose: 40.0 mg/kg/injection, schedule: Q04DX003 (ip), vehicle: saline
  T/C: 223 % of control
endpoint: median survival time, dose: 50.0 mg/kg/injection, schedule: Q07DX003 (ip), vehicle: saline
  T/C: 211 % of control
endpoint: median survival time, dose: 80.0 mg/kg/injection, schedule: Q04DX003 (ip), vehicle: saline
  T/C: 223 % of control
endpoint: median survival time, dose: 100.0 mg/kg/injection, schedule: Q07DX003 (ip), vehicle: saline
  T/C: 202 % of control
endpoint: median survival time, dose: 200.0 mg/kg/injection, schedule: Q07DX003 (ip), vehicle: saline
  T/C: 54 % of control
endpoint: median survival time, dose: 400.0 mg/kg/injection, schedule: Q07DX003 (ip), vehicle: saline
  T/C: 53 % of control

## O=C1NCN(c2ccccc2)C12CCNCC2
endpoint: mean survival time, dose: 25.0 mg/kg/injection, schedule: Q01DX009 (ip), vehicle: saline sonified
  T/C: 108 % of control
[6]
  T/C: 89 % of control
endpoint: mean survival time, dose: 50.0 mg/kg/injection, schedule: Q01DX009 (ip), vehicle: saline sonified
  T/C: 98 % of control
[7]
  T/C: 94 % of control
endpoint: mean survival time, dose: 100.0 mg/kg/injection, schedule: Q01DX009 (ip), vehicle: saline sonified
  T/C: 103 % of control
endpoint: mean survival time, dose: 100.0 mg/kg/injection, schedule: Q04DX003 (ip), vehicle: saline sonified
  T/C: 95 % of control
[8]
  T/C: 89 % of control
